Source: PubChem BioAssay (NCI)
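These data come from cells grown in 96-well plates and exposed to compound for 48 hours at five concentrations. GI50 = concentration required for 50% inhibition of growth. TGI denotes the concentration required for complete inhibition of growth.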

Legend:
Experiment in all cases: growth of human tumour cells (NCI), 48 h; in the data active = GI50 below about 0.43 µM; inactive = the rest
CAKI-1 renal = system: CAKI-1 renal
NCI-H522 lung = system: NCI-H522 lung
A498 renal = system: A498 renal
HOP-62 NSCLC = system: HOP-62 NSCLC
U251 CNS = system: U251 CNS
NCI-H23 lung = system: NCI-H23 lung
KM12 colon = system: KM12 colon
HCT-15 colon = system: HCT-15 colon
T-47D breast = system: T-47D breast
K-562 leukemia = system: K-562 leukemia
MALME-3M melanoma = system: MALME-3M melanoma
UACC-62 melanoma = system: UACC-62 melanoma
SNB-19 CNS = system: SNB-19 CNS
HL-60(TB) leukemia = system: HL-60(TB) leukemia
M14 melanoma = system: M14 melanoma
SF-268 CNS = system: SF-268 CNS
DU-145 prostate = system: DU-145 prostate
IGROV1 ovarian = system: IGROV1 ovarian
HS 578T breast = system: HS 578T breast
COLO 205 colon = system: COLO 205 colon
HCT-116 colon = system: HCT-116 colon
786-0 renal = system: 786-0 renal
OVCAR-8 ovarian = system: OVCAR-8 ovarian
SK-MEL-2 melanoma = system: SK-MEL-2 melanoma
SK-MEL-28 melanoma = system: SK-MEL-28 melanoma
SK-MEL-5 melanoma = system: SK-MEL-5 melanoma
OVCAR-4 ovarian = system: OVCAR-4 ovarian
PC-3 prostate = system: PC-3 prostate
ACHN renal = system: ACHN renal
CCRF-CEM leukemia = system: CCRF-CEM leukemia
SF-539 CNS = system: SF-539 CNS
BT-549 breast = system: BT-549 breast
UO-31 renal = system: UO-31 renal
SK-OV-3 ovarian = system: SK-OV-3 ovarian
UACC-257 melanoma = system: UACC-257 melanoma
NCI-H460 lung = system: NCI-H460 lung
LOX IMVI melanoma = system: LOX IMVI melanoma
OVCAR-5 ovarian = system: OVCAR-5 ovarian
A549 NSCLC = system: A549 NSCLC
SN12C renal = system: SN12C renal
EKVX NSCLC = system: EKVX NSCLC
RPMI-8226 leukemia = system: RPMI-8226 leukemia
SF-295 CNS = system: SF-295 CNS
MDA-MB-231 breast = system: MDA-MB-231 breast
SNB-75 CNS = system: SNB-75 CNS
MCF7 breast = system: MCF7 breast
HT29 colon = system: HT29 colon
MOLT-4 leukemia = system: MOLT-4 leukemia
SW-620 colon = system: SW-620 colon
TK-10 renal = system: TK-10 renal
HCC-2998 colon = system: HCC-2998 colon
MDA-MB-435 = system: MDA-MB-435
OVCAR-3 ovarian = system: OVCAR-3 ovarian
NCI/ADR-RES ovarian = system: NCI/ADR-RES ovarian
NCI-H226 lung = system: NCI-H226 lung

CC(C)[C@@H](C(=O)O[C@@H]1/C=C/C(=O)O[C@@H](C)CCC/C=C/[C@@H]2C[C@H](O)C[C@H]21)[N+](C)(C)C
> 100 µM: TGI (CAKI-1 renal) | TGI (NCI-H522 lung) | TGI (A498 renal) | TGI (HOP-62 NSCLC) | TGI (U251 CNS) | TGI (NCI-H23 lung) | TGI (KM12 colon) | TGI (HCT-15 colon) | TGI (T-47D breast) | TGI (K-562 leukemia) | TGI (MALME-3M melanoma) | TGI (UACC-62 melanoma) | TGI (SNB-19 CNS) | TGI (HL-60(TB) leukemia) | TGI (M14 melanoma) | TGI (SF-268 CNS) | TGI (DU-145 prostate) | TGI (IGROV1 ovarian) | TGI (HS 578T breast) | TGI (COLO 205 colon) | TGI (HCT-116 colon) | TGI (786-0 renal) | TGI (OVCAR-8 ovarian) | TGI (SK-MEL-2 melanoma) | TGI (SK-MEL-28 melanoma) | TGI (SK-MEL-5 melanoma) | TGI (OVCAR-4 ovarian) | TGI (PC-3 prostate) | TGI (ACHN renal) | TGI (CCRF-CEM leukemia) | TGI (SF-539 CNS) | TGI (BT-549 breast) | TGI (UO-31 renal) | TGI (SK-OV-3 ovarian) | TGI (UACC-257 melanoma) | TGI (NCI-H460 lung) | TGI (LOX IMVI melanoma) | TGI (OVCAR-5 ovarian) | TGI (A549 NSCLC) | TGI (SN12C renal) | TGI (EKVX NSCLC) | TGI (RPMI-8226 leukemia) | TGI (SF-295 CNS) | TGI (MDA-MB-231 breast) | TGI (SNB-75 CNS) | TGI (MCF7 breast) | TGI (HT29 colon) | TGI (MOLT-4 leukemia) | TGI (SW-620 colon) | TGI (TK-10 renal) | TGI (HCC-2998 colon) | TGI (MDA-MB-435) | TGI (OVCAR-3 ovarian) | TGI (NCI/ADR-RES ovarian) | TGI (NCI-H226 lung)
inactive: GI50 (CAKI-1 renal) > 100 µM | GI50 (NCI-H522 lung) > 100 µM | GI50 (A498 renal) > 100 µM | GI50 (HOP-62 NSCLC) > 100 µM | GI50 (U251 CNS) > 100 µM | GI50 (NCI-H23 lung) > 100 µM | GI50 (KM12 colon) > 100 µM | GI50 (HCT-15 colon) > 100 µM | GI50 (T-47D breast) > 100 µM | GI50 (K-562 leukemia) > 100 µM | GI50 (MALME-3M melanoma) > 100 µM | GI50 (UACC-62 melanoma) > 100 µM | GI50 (SNB-19 CNS) > 100 µM | GI50 (HL-60(TB) leukemia) > 100 µM | GI50 (M14 melanoma) > 100 µM | GI50 (SF-268 CNS) > 100 µM | GI50 (DU-145 prostate) > 100 µM | GI50 (IGROV1 ovarian) > 100 µM | GI50 (HS 578T breast) > 100 µM | GI50 (COLO 205 colon) > 100 µM | GI50 (HCT-116 colon) > 100 µM | GI50 (786-0 renal) > 100 µM | GI50 (OVCAR-8 ovarian) > 100 µM | GI50 (SK-MEL-2 melanoma) > 100 µM | GI50 (SK-MEL-28 melanoma) > 100 µM | GI50 (SK-MEL-5 melanoma) > 100 µM | GI50 (OVCAR-4 ovarian) > 100 µM | GI50 (PC-3 prostate) > 100 µM | GI50 (ACHN renal) > 100 µM | GI50 (CCRF-CEM leukemia) > 100 µM | GI50 (SF-539 CNS) > 100 µM | GI50 (BT-549 breast) > 100 µM | GI50 (UO-31 renal) > 100 µM | GI50 (SK-OV-3 ovarian) > 100 µM | GI50 (UACC-257 melanoma) > 100 µM | GI50 (NCI-H460 lung) > 100 µM | GI50 (LOX IMVI melanoma) > 100 µM | GI50 (OVCAR-5 ovarian) > 100 µM | GI50 (A549 NSCLC) > 100 µM | GI50 (SN12C renal) > 100 µM | GI50 (EKVX NSCLC) > 100 µM | GI50 (RPMI-8226 leukemia) > 100 µM | GI50 (SF-295 CNS) > 100 µM | GI50 (MDA-MB-231 breast) > 100 µM | GI50 (SNB-75 CNS) > 100 µM | GI50 (MCF7 breast) > 100 µM | GI50 (HT29 colon) > 100 µM | GI50 (MOLT-4 leukemia) > 100 µM | GI50 (SW-620 colon) > 100 µM | GI50 (TK-10 renal) > 100 µM | GI50 (HCC-2998 colon) > 100 µM | GI50 (MDA-MB-435) > 100 µM | GI50 (OVCAR-3 ovarian) > 100 µM | GI50 (NCI/ADR-RES ovarian) > 100 µM | GI50 (NCI-H226 lung) > 100 µM
